Test results from patent publication US6436448B1, “Method for the treatment of lymphedema using guaifenesin” (Sky BioHealth Solutions, Inc., priority 2001, dated 2002).

Legend:
[1] = herbal medicines, background statement; cited from earlier work
[2] = Inventor's clinical observation of patients with lymphedema / fluid accumulation treated orally; assay type: in vivo
Text: The inventor disagrees with the basic assumption and hypothesis on the inner working of guaifenesin. The inventor believes that guaifenesin's activity is its ability to break down undigested protein, and antigen-antibody complexed protein within the tissues and lymphatic nodes and vessels to reduce fluid accumulation and therefore reduce lymphedema. Guaifenesin is an expectorate and it thins out proteinaceous secretions from our lungs by directly and/or indirectly through stimulating macrophages to breaking the proteins into its amino acids components. The inventor believes that guaifenesin break down the proteins within the blood stream, tissues, and the lymphatic system. By maintaining a high level of guaifenesin within the blood stream, the “foreign” proteins within the tissue, antigen-antibody protein complexes within the lymph nodes will be broken down allowing the broken down amino acid particles to diffuse across the tissue into the lymphatic drainage. With this fluid switch from the lymphatic to the systemic circulation diuresis ensues without affecting the potassium metabolism within the kidney. The inventor has also observed lymphedema that occurs in non-fibromyalgia patients that responds well to guaifenesin therapy resulting in reduction of the swelling. […] These observations confirm the hypothesis that guaifenesin works on the “foreign” protein or antigen-antibodies protein complexes within the tissues and lymphatic system. With different size “foreign” protein and antigen-antibody protein complexes, guaifenesin's action on these proteins in various part of the body will proceed with different rate resulting in different rate of swelling reduction in different part of the bodies. Many of these patients, however, are diagnosed by a physician to have a cardiogenic etiology of edema and are typically treated with diuretics of various types. Cardiogenic edema should respond to a diuretic within […]. The inventor has observed patients being on diuretics for as long as a year with no results on the lymphedema. In testing this hypothesis, the inventor has used guaifenesin on over several hundred patients in varying dosages. […] Guaifenesin is also available in sustained-release version. The long-acting version is typically available at 600 mg and is designed to be taken two or three times a day. […] Other combinations of various dosage for ms may be used with various patients to improve results. […] While the inventor has only administered guaifenesin to patients orally, guaifenesin and its analogs can be formulated using known methods to prepare pharmaceutically useful compositions by combining guaifenesin with a pharmaceutically acceptable carriers and adapted to be administered by injection, transdermally, transmucosally or by any other means of drug delivery vehicle. Guafenesin may also be administered to a patient in a patch form or in a cream, ointment, or in a nasal or lung spray, or in a suppository.

Row | Compound | swelling of lymphedema [1] | results with combination of short acting and long acting versions ([2]; combination of short acting and long acting versions) | painful and swollen lymph nodes ([2]; fibromyalgia patients on guaifenesin) | results with long-acting (sustained-release) version alone ([2]; long-acting version, typically 600 mg two or three times a day) | response of lymphedema (reduction of the swelling) ([2]; non-fibromyalgia patients, guaifenesin therapy) | accumulated fluid ([2]; over several hundred patients, oral, about 600 mg to about 4000 mg per day)
1 | O=c1ccc2ccccc2o1 [coumarin] | decrease some of the swelling associated with lymphedema | – | – | – | – | –
2 | COc1ccccc1OCC(O)CO (stereo not drawn) [guaifenesin] | – | improves the results | reduction of the painful and swollen lymph nodes | may not work well in some patients | responds well | reduction of accumulated fluid
